# Earlier results, collected in Sander's compilation of Henry's law constants (doi:10.1063/1.1562632).
# Several values for one entry are separate records, joined by “and”; a condition that tells them apart may be missing. Equal entries are not always repeated.
# Test: Henry solubility constant Hcp at 298.15 K (mol/(m3 Pa))
# Conditions: reference: Li et al. (2003); cited value
row,Compound,Henry solubility constant Hcp
1,"Clc1cc(-c2cc(Cl)c(Cl)c(Cl)c2Cl)c(Cl)c(Cl)c1Cl [2,2',3,3',4,4',5,5'-octachlorobiphenyl]",0.15 and 0.23
2,"Clc1cc(Cl)c(-c2ccc(Cl)c(Cl)c2Cl)cc1Cl [2,2',3,4,4',5'-hexachlorobiphenyl]",0.025 and 0.033
3,"Clc1cc(Cl)c(-c2cc(Cl)c(Cl)cc2Cl)cc1Cl [2,2',4,4',5,5'-hexachlorobiphenyl]",0.04 and 0.051
4,"Clc1cc(Cl)c(-c2c(Cl)cc(Cl)cc2Cl)c(Cl)c1 [2,2',4,4',6,6'-hexachlorobiphenyl]",0.013 and 0.011
5,"Clc1ccc(Cl)c(-c2cc(Cl)c(Cl)cc2Cl)c1 [2,2',4,5,5'-pentachlorobiphenyl]",0.032 and 0.041
6,"Clc1ccc(Cl)c(-c2cc(Cl)ccc2Cl)c1 [2,2',5,5'-tetrachlorobiphenyl]",0.035 and 0.04
7,"Clc1ccc(-c2cc(Cl)c(Cl)cc2Cl)cc1Cl [2,3',4,4',5-pentachlorobiphenyl]",0.031 and 0.069
8,"Clc1ccc(-c2ccc(Cl)c(Cl)c2Cl)cc1Cl [2,3,3',4,4'-pentachlorobiphenyl]",0.03 and 0.072
9,"Clc1cc(-c2ccccc2)c(Cl)c(Cl)c1Cl [2,3,4,5-tetrachlorobiphenyl]",0.049 and 0.05
10,"Clc1ccc(-c2cc(Cl)ccc2Cl)cc1 [2,4',5-trichlorobiphenyl]",0.027 and 0.029
11,"Clc1ccc(-c2ccccc2Cl)cc1 [2,4'-dichlorobiphenyl]",0.038 and 0.044
12,"Clc1ccc(-c2ccc(Cl)cc2)cc1 [4,4'-dichlorobiphenyl]",0.07 and 0.075
